Experimental data: patent US20090131500A1, “PORPHYRIN DERIVATES AND THEIR USE AS PHOTOSENSITIZERS IN PHOTODYNAMIC THERAPY” (priority 2006, published 2009)

What was measured:
Format in all cases: physicochemical
[1] = Ground state absorption spectrum
Protocol: (§1) The ground state absorption spectra were recorded at room temperature using a commercial spectrophotometer Shimadzu UV-2501PC. Steady-state fluorescence spectra were measured in 1 cm×1 cm quartz optical cells using a combination of a cw-Xenon lamp (XBO 150) and a monochromator (Lot-Oriel, bandwidth 10 nm) for excitation and a polychromator with a cooled CCD matrix as a detector system (Lot-Oriel, Instaspec IV).

[2] = Steady-state fluorescence spectrum (fluorescence quantum yield)
Protocol: as §1

[3] = Time-resolved singlet oxygen luminescence at 1270 nm (singlet oxygen quantum yield); conditions: excitation at 510 nm, Pheo as reference
Protocol: Photosensitizer-generated time-resolved singlet oxygen luminescence was measured at 1270 nm. A nanosecond Nd-YAG laser (BMI) equipped with an OPO (BMI) was used to excite the samples at 510 nm and the luminescence signal was recorded by a germanium pin diode (Northcoast). To calculate the singlet oxygen quantum yield, (DA, the solution of Pheo in DMF as well as in ethanol were used as reference (ΦΔ^Pheo=0.52).

[4] = Transient absorption spectra (ISC / triplet quantum yield)
Protocol: To measure transient absorption spectra (TAS), a white light continuum was generated as a test beam in a cell with D2O/H2O mixture using intense 25 ps single pulses from a Nd:YAG laser (Ekspla) at 1064 nm. Before passing through the sample, the continuum radiation was split to get a reference spectrum. The transmitted as well as the reference beam were focused into two optical fibers and were recorded simultaneously at different traces on a CCD-matrix (Lot-Oriel, Instaspec IV). The tunable radiation of a OPO/OPG (Ekspla, tuning range 210-2300 nm) pumped by the third harmonic of the same laser was used for excitation of the samples. The mechanical delay line allowed measuring the light-induced changes in the absorption spectrum at different time delays up to 15 ns after excitation.

Substance: 5^4, 10^4, 15^4, 20^4-tetra-t-butyl[3,5^2]-ethano-5^6-methyl-3^1-oxo-5,10,15,20-tetraphenylporphyrin [FB-1-CO]
- absorption band of the first excited singlet state ([1]; in ethanol (FIG. 1)): 690 nm
- Qy-absorption at λ ([1]; room temperature): 690 nm
- fluorescence quantum yield ΦFl [2]: 0.02
- singlet oxygen quantum yield ΦΔ [3]: 0.9
- ISC quantum yield ΦISC [4]: 0.95±0.05
